Patent US20160322588A1, “Organic Transistor, Compound, Organic Semiconductor Material for Non-Light-Emitting Organic Semiconductor Device, Material for Organic Transistor, Coating Solution for Non-Light-Emitting Organic Semiconductor Device, and Organic Semiconductor Film for Non-Light-Emitting Organic Semiconductor Device” (FUJIFILM Corporation, priority 2014, published 2016)

Test: Solubility in toluene
Format: physicochemical
Details: 20 mg mixed with toluene (1 mL)
Excerpt: B: Incompletely dissolved.
In the case of `CCCCCCCCOc1cc2ccc3c(sc4c5ccc6cc(OCCCCCCCC)sc6c5sc34)c2s1` [Compound 37], the Solubility is reported as “A (Completely dissolved.)”. With `CCCCCCCCc1cc2ccc3c(sc4c5ccc6ccsc6c5sc34)c2s1` [Compound 43] the Solubility was “A (Completely dissolved.)”. In the case of `CCCCCCCCc1cc2c(ccc3c2sc2c4ccc5sc(CCCCCCCC)cc5c4sc32)s1` [Compound 2], the Solubility is reported as “A (Completely dissolved.)”. In the case of `CCCCCCCCCCCCc1cc2ccc3c(sc4c5ccc6cc(CCCCCCCCCCCC)sc6c5sc34)c2s1` [Compound 3], the Solubility is reported as “A (Completely dissolved.)”. For `CCCCCCCCCCCCCCc1cc2ccsc2c2sc3c(sc4c5sccc5cc(CCCCCCCCCCCCCC)c43)c12` [Compound 39], the Solubility was “A (Completely dissolved.)”. With `CCCCCCCCC#Cc1cc2ccc3c(sc4c5ccc6cc(C#CCCCCCCCC)sc6c5sc34)c2s1` [Compound 29] the Solubility was “A (Completely dissolved.)”. For `CCCCCCCCc1cc2ccc3c(sc4c5ccc6cc(CCCCCCCC)sc6c5sc34)c2s1` [Compound 1], the Solubility was “A (Completely dissolved.)”. For `CCCCCCCCC#Cc1cc2c(ccc3c2sc2c4ccc5sc(C#CCCCCCCCC)cc5c4sc32)s1` [Compound 30], the Solubility was “A (Completely dissolved.)”. With `CCCCCCCCOc1cc2c(ccc3c2sc2c4ccc5sc(OCCCCCCCC)cc5c4sc32)s1` [Compound 38] the Solubility was “A (Completely dissolved.)”. With `CCCCCCCCCCCCc1cc2c(ccc3c2sc2c4ccc5sc(CCCCCCCCCCCC)cc5c4sc32)s1` [Compound 4] the Solubility was “A (Completely dissolved.)”. For `CCCCCCCCCCCCCCc1cc2sccc2c2sc3c(sc4c5ccsc5cc(CCCCCCCCCCCCCC)c43)c12` [Compound 40], the Solubility was “A (Completely dissolved.)”. With `CCCCCCCCc1cc2c(ccc3c2sc2c4ccc5sccc5c4sc32)s1` [Compound 44] the Solubility was “A (Completely dissolved.)”.

Same assay, conditions: organic solvent or mixture, thermodynamic from solid; 20 mg mixed with toluene (1 mL); read-out: Solubility
Compound `CC(C)CCCC(C)CCc1cc2ccc3c(sc4c5ccc6cc(CCC(C)CCCC(C)C)sc6c5sc34)c2s1` (centres unmarked) [Compound 5] has a Solubility greater than 20 mg/mL. `CCCC(C)n1ccc2c3sc4c5ccc6c(ccn6C(C)CCC)c5sc4c3ccc21` (centres unmarked) [compound 3, reference compound] gave a Solubility of less than 20 mg/mL. In the case of `c1cc2cc3sc4c5cc6sccc6cc5sc4c3cc2s1` [compound 4, reference compound], the Solubility is reported as less than 20 mg/mL. With `CCc1cc2cc3c(cc2s1)sc1c2cc4cc(CC)sc4cc2sc31` [compound 2, reference compound] the Solubility was less than 20 mg/mL. `Cn1ccc2c3sc4c5ccc6c(ccn6C)c5sc4c3ccc21` [compound 1, reference compound] showed a Solubility of less than 20 mg/mL.
